Test results published in patent US20230295096A1, “PYRAZOLE CARBOXAMIDE COMPOUNDS FOR TREATMENT OF HBV” (ASSEMBLY BIOSCIENCES, INC., priority 2020, published 2023).

tested on: HBV; experiment: Viral load production from HepAD38 cells, qPCR of the HBV core sequence in supernatant; format: cell-based; conditions: Hepatitis B virus, HePAD38, 120 h, HepAD38 cells, 5 days, HBV DNA in supernatant by qPCR; Table 1 ranges; read-out: Activity (viral load lowering EC50)
Experimental: HepAD38 cells grown in a T-150 flask (Corning, cat#: 430825) with Growth Medium (DMEM/F12 (1:1) (Hyclone, cat#: SH30023.02), 1X Pen/Strep (Invitrogen, cat#: 15140-122), 10% FBS (Tissue Culture Biologics, cat#: 101), 250 µg/mL G418 (Alfa Aesar, cat#: J62671), 1 µg/mL Tetracycline (Teknova, cat#: T3320)) were detached with 0.25% trypsin-EDTA (Invitrogen, cat#: 25200-056). Tetracycline-free treatment medium (15 mL DMEM/F12 (1:1) 1× Pen/step, with 2% FBS, Tet-system approved (Clontech, cat#: 631106) were then added to mix, transferred into a 50 ml conical tube (Falcon, cat#: 21008-918,) and spun at 1300 rpm for 5 min. Pelleted cells were then re-suspended/washed with 50 mL of 1X DPBS (Invitrogen, cat#: 14190-136) 2 times and 50 mL treatment medium twice. HepAD38 cells were then re-suspended with 10 mL of treatment medium, syringed and counted. Wells of 96-well clear bottom TC plate (Corning, cat#: 3904,) were seeded at 50.000 cells/well in 180 µL of treatment medium, and 20 µL of either 10% DMSO (Sigma, cat#: D4540) as controls or a 10X solution of test compounds in 10% DMSO in treatment media was added for a final compound concentration starting at 10 µM, and plates were incubated in 5% CO2 incubator at 37° C. for 5 days.
Subsequently viral load production was assayed by quantitative PCR (qPCR) of the HBV core sequence. PCR reaction mixture containing forward primers HBV-f 5′-CTGTGCCTTGGGTGGCTTT-3′ (IDT DNA), Reverse primers HBV-r 5′-[…]-3′ (IDT DNA), Fluorescent TaqMan^tm Probes HBV-probe 5′-FAM/AGCTCCAAA/ZEN/[…]/3IABkFQ-3′ (IDT DNA), 10 µL/well of PerfeCTa® qPCR ToughMix® (Quanta Biosciences, Cat#: 95114-05 K), and 6 µL/well of DEPC water (Alfa Aesar, cat#: J62087) was prepared. Four µL of supernatant was added to 16 µL of the reaction mixture in a qPCR plate (Applied Biosytems, Cat#: 4309849), sealed with a film (Applied Biosystems, Cat#: 4311971), centrifuged for a few seconds, and subsequently run on an Applied Biosystems VIIA7. The PCR mixture was incubated at 45° C. for 5 min, then 95° C. for 10 min, followed by 40 cycles of 10 seconds at 95° C. and 20 seconds at 60° C. Viral load was quantified against known HBV DNA standards by using ViiA™ 7 Software. Viral load in the supernatant from wells with treated cells were compared against viral load in supernatant from DMSO control wells (≥ 3 per plate). Cell viability assay was performed with CellTiter-Glo Luminescent Cell Viability Assay (Promega, cat#: G7573) with modification. Mixed appropriate amount of CellTiter-Glo (CTG) 1X DPBS in a 1:1 ratio, added 100 uL of the mixture to each well followed completely removal of all supernatant in each well without touching cell surface. Incubated the plate at room temperature for 10 min on an orbital shaker, and then read the plate with a plate reader (TECAN M1000 or Envision). EC50 or CC50 values were calculated through curve-fitting of the four-parameter nonlinear-logistic-regression model (GraphPad Prism or Dotmatics). CC50 values were all >10 µM.

| SMILES | EC50 [nM] |
| --- | --- |
| Cn1nc(C2CC3CC(O)(c4ccc(Oc5ccccc5)cc4)CC3C2)c(C(=O)Nc2ccc(F)c(Cl)c2)c1N (centres unmarked) [Example 10, 5-Amino-N-(3-chloro-4-fluorophenyl)-3-(5-hydroxy-5-(4-phenoxyphenyl)octahydropentalen-2-yl)-1-methyl-1H-pyrazole-4-carboxamide] | < 10 |
| Cn1nc(C2CC3CC(O)(c4cc(F)cc(F)c4)CC3C2)c(C(=O)Nc2ccc(F)c(Cl)c2)c1N (centres unmarked) [Example 11, 5-Amino-N-(3-chloro-4-fluorophenyl)-3-(5-(3,5-difluorophenyl)-5-hydroxyoctahydropentalen-2-yl)-1-methyl-1H-pyrazole-4-carboxamide] | 10 to 50 |
| Cn1nc(C2CC3CC(O)(c4ccc(F)c(F)c4)CC3C2)c(C(=O)Nc2ccc(F)c(Cl)c2)c1N (centres unmarked) [Example 12, 5-Amino-N-(3-chloro-4-fluorophenyl)-3-(5-(3,4-difluorophenyl)-5-hydroxyoctahydropentalen-2-yl)-1-methyl-1H-pyrazole-4-carboxamide] | 10 to 50 |
| Cc1cc(C2(O)CC3CC(c4nn(C)c(N)c4C(=O)Nc4ccc(F)c(Cl)c4)CC3C2)ccc1F (centres unmarked) [Example 13, 5-Amino-N-(3-chloro-4-fluorophenyl)-3-(5-(4-fluoro-3-methylphenyl)-5-hydroxyoctahydropentalen-2-yl)-1-methyl-1H-pyrazole-4-carboxamide] | 10 to 50 |
| Cn1nc(C2CC3CC(O)(c4ccccn4)CC3C2)c(C(=O)Nc2ccc(F)c(Cl)c2)c1N (centres unmarked) [Example 14, 5-Amino-N-(3-chloro-4-fluorophenyl)-3-(5-hydroxy-5-(pyridin-2-yl)octahydropentalen-2-yl)-1-methyl-1H-pyrazole-4-carboxamide] | < 10 |
| Cn1nc(C2CC3CC(O)(c4cccnc4)CC3C2)c(C(=O)Nc2ccc(F)c(Cl)c2)c1N (centres unmarked) [Example 15, 5-Amino-N-(3-chloro-4-fluorophenyl)-3-(5-hydroxy-5-(pyridin-3-yl)octahydropentalen-2-yl)-1-methyl-1H-pyrazole-4-carboxamide] | < 10 |
| Cn1nc(C2CC3CC(O)(c4ccncc4)CC3C2)c(C(=O)Nc2ccc(F)c(Cl)c2)c1N (centres unmarked) [Example 16, 5-Amino-N-(3-chloro-4-fluorophenyl)-3-(5-hydroxy-5-(pyridin-4-yl)octahydropentalen-2-yl)-1-methyl-1H-pyrazole-4-carboxamide] | < 10 |
| Cc1ccc(C2(O)CC3CC(c4nn(C)c(N)c4C(=O)Nc4ccc(F)c(Cl)c4)CC3C2)nc1 (centres unmarked) [Example 17, 5-Amino-N-(3-chloro-4-fluorophenyl)-3-(5-hydroxy-5-(5-methylpyridin-2-yl)octahydropentalen-2-yl)-1-methyl-1H-pyrazole-4-carboxamide] | < 10 |
| Cn1nc(C2CC3CC(O)(c4nccs4)CC3C2)c(C(=O)Nc2ccc(F)c(Cl)c2)c1N (centres unmarked) [Example 18, 5-Amino-N-(3-chloro-4-fluorophenyl)-3-(5-hydroxy-5-(thiazol-2-yl)octahydropentalen-2-yl)-1-methyl-1H-pyrazole-4-carboxamide] | < 10 |
| Cn1ccnc1C1(O)CC2CC(c3nn(C)c(N)c3C(=O)Nc3ccc(F)c(Cl)c3)CC2C1 (centres unmarked) [Example 19, 5-Amino-N-(3-chloro-4-fluorophenyl)-3-(5-hydroxy-5-(1-methyl-1H-imidazol-2-yl)octahydropentalen-2-yl)-1-methyl-1H-pyrazole-4-carboxamide] | < 10 |
| Cn1nc(C2CC3CC(O)(c4ncco4)CC3C2)c(C(=O)Nc2ccc(F)c(Cl)c2)c1N (centres unmarked) [Example 21, 5-Amino-N-(3-chloro-4-fluorophenyl)-3-(5-hydroxy-5-(oxazol-2-yl)octahydropentalen-2-yl)-1-methyl-1H-pyrazole-4-carboxamide] | < 10 |
| C#CC1(O)CC2CC(c3nn(C)c(N)c3C(=O)Nc3ccc(F)c(Cl)c3)CC2C1 (centres unmarked) [Example 22, 5-Amino-N-(3-chloro-4-fluorophenyl)-3-(5-ethynyl-5-hydroxyoctahydropentalen-2-yl)-1-methyl-1H-pyrazole-4-carboxamide] | < 10 |
| Cn1cc(C2(O)CC3CC(c4nn(C)c(N)c4C(=O)Nc4ccc(F)c(Cl)c4)CC3C2)nn1 (centres unmarked) [Example 23, 5-Amino-N-(3-chloro-4-fluorophenyl)-3-(5-hydroxy-5-(1-methyl-1H-1,2,3-triazol-4-yl)octahydropentalen-2-yl)-1-methyl-1H-pyrazole-4-carboxamide] | < 10 |
| Cn1nc(C2CC3CC(O)(c4c(Br)nnn4C)CC3C2)c(C(=O)Nc2ccc(F)c(Cl)c2)c1N (centres unmarked) [Example 24, 5-Amino-3-(5-(4-bromo-1-methyl-1H-1,2,3-triazol-5-yl)-5-hydroxyoctahydropentalen-2-yl)-N-(3-chloro-4-fluorophenyl)-1-methyl-1H-pyrazole-4-carboxamide] | < 10 |
| Cn1nncc1C1(O)CC2CC(c3nn(C)c(N)c3C(=O)Nc3ccc(F)c(Cl)c3)CC2C1 (centres unmarked) [Example 25, 5-Amino-N-(3-chloro-4-fluorophenyl)-3-(5-hydroxy-5-(1-methyl-1H-1,2,3-triazol-5-yl)octahydropentalen-2-yl)-1-methyl-1H-pyrazole-4-carboxamide] | < 10 |
| Cn1nccc1C1(O)CC2CC(c3nn(C)c(N)c3C(=O)Nc3ccc(F)c(Cl)c3)CC2C1 (centres unmarked) [Example 26, 5-Amino-N-(3-chloro-4-fluorophenyl)-3-(5-hydroxy-5-(1-methyl-1H-pyrazol-5-yl)octahydropentalen-2-yl)-1-methyl-1H-pyrazole-4-carboxamide] | < 10 |
| Cn1nc(C2CC3CC(O)(c4c[nH]cn4)CC3C2)c(C(=O)Nc2ccc(F)c(Cl)c2)c1N (centres unmarked) [Example 27, 5-Amino-N-(3-chloro-4-fluorophenyl)-3-(5-hydroxy-5-(1H-imidazol-4-yl)octahydropentalen-2-yl)-1-methyl-1H-pyrazole-4-carboxamide] | 10 to 50 |
| Cn1nc(C2CC3CC(O)(c4cn[nH]c4)CC3C2)c(C(=O)Nc2ccc(F)c(Cl)c2)c1N (centres unmarked) [Example 28, 5-Amino-N-(3-chloro-4-fluorophenyl)-3-(5-hydroxy-5-(1H-pyrazol-4-yl)octahydropentalen-2-yl)-1-methyl-1H-pyrazole-4-carboxamide] | 10 to 50 |
| Cn1nc(C2CC3CC(F)(CC(F)F)CC3C2)c(C(=O)Nc2ccc(F)c(Cl)c2)c1N (centres unmarked) [Example 29, 5-Amino-N-(3-chloro-4-fluorophenyl)-3-(5-(2,2-difluoroethyl)-5-fluorooctahydropentalen-2-yl)-1-methyl-1H-pyrazole-4-carboxamide] | 10 to 50 |
| Cn1nc(C2CC3CC(O)(C(F)F)CC3C2)c(C(=O)Nc2ccc(F)c(Cl)c2)c1N (centres unmarked) [Example 30, 5-Amino-N-(3-chloro-4-fluorophenyl)-3-(5-(difluoromethyl)-5-hydroxyoctahydropentalen-2-yl)-1-methyl-1H-pyrazole-4-carboxamide] | 10 to 50 |
| Cn1nc(C2CC3CC(O)(C(F)(F)F)CC3C2)c(C(=O)Nc2ccc(F)c(Cl)c2)c1N (centres unmarked) [Example 31, 5-Amino-N-(3-chloro-4-fluorophenyl)-3-(5-hydroxy-5-(trifluoromethyl)octahydropentalen-2-yl)-1-methyl-1H-pyrazole-4-carboxamide] | 10 to 50 |
| Cn1nc(C2CC3CC(O)(C(F)(F)C(F)(F)F)CC3C2)c(C(=O)Nc2ccc(F)c(Cl)c2)c1N (centres unmarked) [Example 32, 5-Amino-N-(3-chloro-4-fluorophenyl)-3-(5-hydroxy-5-(perfluoroethyl)octahydropentalen-2-yl)-1-methyl-1H-pyrazole-4-carboxamide] | 10 to 50 |
| Cn1nc(C2CC3CC(O)(C(F)(F)S(=O)(=O)c4ccccc4)CC3C2)c(C(=O)Nc2ccc(F)c(Cl)c2)c1N (centres unmarked) [Example 33, 5-Amino-N-(3-chloro-4-fluorophenyl)-3-(5-(difluoro(phenylsulfonyl)methyl)-5-hydroxyoctahydropentalen-2-yl)-1-methyl-1H-pyrazole-4-carboxamide] | 10 to 50 |
